These are literature values, as cited in patent publication US20140243422A1, “METHODS OF TREATING BEHAVIORAL AND PSYCHIATRIC DISORDERS” (ELAN PHARMACEUTICALS, INC., priority 2011, published 2014).

SMILES strings stand for the structures.

This data set concerns brain myo-inositol levels. As to conditions: bipolar patients, therapeutic doses, within a few days; cited from earlier work.

For the molecule `O=C([O-])[O-].[Li+].[Li+]` [Lithium, lithium carbonate], the “reduction of brain myo-inositol levels” value is reported as around 30%.
